# Results taken from article PMC10574185, “Encapsulation and Biological Activity of Hesperetin Derivatives with HP-β-CD” (Molecules, 2023).
# How the values were obtained:
# [1] = tested on: Salmonella Typhimurium ATCC 14028; test: Antagonistic activity, diffusion-well method; format: cell-based; conditions: Salmonella enterica, compounds at 2.5 µM, wells 8 mm, 37 °C, 18 h
# Description: (§1) The antimicrobial activity of the HESP, ligands ([…], and HTSC), and complexes with HP-β-CD were tested against Gram-positive bacteria (Listeria monocytogenes ATCC 19111, Listeria monocytogenes ATCC 19112, Listeria monocytogenes ATCC 19115, Staphylococcus aureus ATCC 29737, Staphylococcus aureus ATCC 25923, Staphylococcus aureus ATCC 27734) and Gram-negative bacteria (Escherichia coli ATCC 11303, Escherichia coli ATCC 35218, Salmonella Typhimurium, ATCC 14028, Salmonella Enteritidis ATCC 13076, Salmonella Choleraesuis ATCC 7001). The strains were activated from cryobanks by passaging them twice onto a Nutrient Broth (Merck, Darmstadt, Germany). All bacteria were grown for 24 h at 37 °C. Antagonistic activity of the following chemical compounds: […], and […] determined by the diffusion-well method. The test strains were plated on Mueller-Hinton Agar (Merck, Darmstadt, Germany) in the form of a surface layer of bacteria according to the procedures recommended by the European Committee on Antimicrobial Susceptibility Testing EUCAST [74]. The detailed methodology was described in the paper by Sykuła et al.. Bacterial inoculum was prepared from an overnight solid culture. The inoculum density was 1-2 × 10^8 CFU/mL, which corresponds to a McFarland standard of 0.5. The samples of the test compounds were dissolved in 5% (w/w) DMSO to obtain a concentration of 500 μM, and were sterilized using filtration (filter pore width 0.2 μm; (Sartorius AG, Gottingen, Germany). The bacteria inoculum test culture (0.1 mL) smear conducted was on sterile Mueller-Hinton Agar (Merck, Darmstadt, Germany) plates. […] A total of 50 μL of the prepared solutions of the tested compounds at a concentration of 500 μM were added to the wells. The plates prepared in this way were incubated at 37 °C for 18 h. After this time, zones of growth inhibition were read and the result was given in mm. The experiment was carried out in two independent repetitions. The results were expressed in average values and standard deviation. The results were analyzed using a one-way ANOVA and post-hoc Tukey's test.
# [2] = tested on: Listeria monocytogenes ATCC 19111; test: Antagonistic activity, diffusion-well method; format: cell-based; conditions: ATCC19111, compounds at 2.5 µM, wells 8 mm, 37 °C, 18 h
# Description: as §1
# [3] = tested on: Staphylococcus aureus ATCC 27734; test: Antagonistic activity, diffusion-well method; format: cell-based; conditions: ATCC27734, compounds at 2.5 µM, wells 8 mm, 37 °C, 18 h
# Description: as §1
# [4] = tested on: Listeria monocytogenes ATCC 19112; test: Antagonistic activity, diffusion-well method; format: cell-based; conditions: ATCC19112, compounds at 2.5 µM, wells 8 mm, 37 °C, 18 h
# Description: as §1
# [5] = tested on: Listeria monocytogenes ATCC 19115; test: Antagonistic activity, diffusion-well method; format: cell-based; conditions: ATCC19115, compounds at 2.5 µM, wells 8 mm, 37 °C, 18 h
# Description: as §1
# [6] = tested on: Salmonella Choleraesuis ATCC 7001; test: Antagonistic activity, diffusion-well method; format: cell-based; conditions: Salmonella enterica, compounds at 2.5 µM, wells 8 mm, 37 °C, 18 h
# Description: as §1
# [7] = tested on: Salmonella Enteritidis ATCC 13076; test: Antagonistic activity, diffusion-well method; format: cell-based; conditions: Salmonella enterica, compounds at 2.5 µM, wells 8 mm, 37 °C, 18 h
# Description: as §1
# [8] = tested on: HaCaT cells; test: MTT cytotoxicity assay on HaCaT keratinocytes; format: cell-based, human
# Description: HaCaT keratinocyte cells were exposed to chemical compounds at nine different concentrations (from 3.9 to 995.6 µg/mL) in four replicates of each concentration for 24 and 48 h.
# All compounds were dissolved in sterile DMSO (Merck Life Science, Warsaw, Poland) and were sterile-filtered with 0.22 µm pore size sterile disposable syringe filters.
# HaCaT cell line (the normal immortalised human keratinocytes) used in the study derived from the 35th passage (the original material created by Prof. Dr. Petra Boukamp and Dr. Norbert Fusenig) was purchased from Cell Line Service GmbH (Eppelheim, Germany). The cells were cultured and propagated as described previously.
# The cytotoxicity was assessed with MTT assay according to methodology applied previously.
# The following final concentrations (in four replicates per experiment) of the test compounds were tested (µg/mL): 3.9; 7.8; 15.6; 31.1; 62.2; 124.5; 248.9; 497.8, and 995.6. […] Three independent experiments were conducted. The vehicle was cells in the culture medium. The assay was conducted for 24 h and 48 h.
# [9] = tested on: Escherichia coli ATCC 11303; test: Minimal inhibition concentration (dilution + diffusion-well); format: cell-based; conditions: ATCC11303, 37 °C, 18 h
# Description: (§2) The MIC was performed for compounds and strains sensitive to their action in the antagonistic test. Minimum inhibitory concentration was determined by combining the dilution method with the diffusion-well method. Test compounds at a concentration of 500 μM were prepared in 5% (w/w) DMSO. Surface layer of microorganisms, against which antagonistic activity was noted, were prepared in the same way as for the antagonistic test. Then, two-fold sequential dilutions of the test compounds in the range of 500 µM to 62.5 µM were prepared. Wells with a diameter of 8 mm cut in the Mueller–Hinton Agar (Merck, Darmstadt, Germany) with the test strain were added with 50 µL of the prepared dilutions, which corresponded to the following concentrations of the tested compounds: […], 1.25 mM, 0.625 mM, and […]. Petri dishes prepared in this way were incubated at 37 °C for 18 h. After a given time, the MIC value was read. The MIC concentration expressed in µM was the first concentration of the tested compounds at which growth inhibition of the test strain was observed.
# [10] = tested on: Staphylococcus aureus ATCC 25923; test: as above; format: cell-based; conditions: ATCC25923, 37 °C, 18 h
# Description: as §2
# [11] = tested on: Staphylococcus aureus ATCC 29737; test: as above; format: cell-based; conditions: ATCC29737, 37 °C, 18 h
# Description: as §2
compound,measurement,setting,value
"CC(O)COC[C@H]1O[C@@H]2O[C@H]3[C@H](O)[C@@H](O)[C@@H](O[C@H]4[C@H](O)[C@@H](O)[C@@H](O[C@H]5[C@H](O)[C@@H](O)[C@@H](O[C@H]6[C@H](O)[C@@H](O)[C@@H](O[C@H]7[C@H](O)[C@@H](O)[C@@H](O[C@H]8[C@H](O)[C@@H](O)[C@@H](O[C@H]1[C@H](O)[C@H]2O)O[C@@H]8COCC(C)O)O[C@@H]7COCC(C)O)O[C@@H]6COCC(C)O)O[C@@H]5COCC(C)O)O[C@@H]4COCC(C)O)O[C@@H]3COCC(C)O (stereo partly drawn) [HP-β-CD, (2-Hydroxypropyl)-β-cyclodextrin]",zone of inhibition at 2.5 µM,[1],0 mm
same,zone of inhibition at 2.5 µM,[2],0 mm
same,zone of inhibition at 2.5 µM,[3],0 mm
same,zone of inhibition at 2.5 µM,[4],0 mm
same,zone of inhibition at 2.5 µM,[5],0 mm
same,zone of inhibition at 2.5 µM,[6],0 mm
same,zone of inhibition at 2.5 µM,[7],0 mm
same,cytotoxicity (maximum over tested concentrations),"[8]; 24 h, 3.9-995.6 µg/mL",up to 6.6% ± 7.2
same,Non-cytotoxic concentration (IC0),[8]; 24 h exposure,≤ 31.1 µg/mL
same,Non-cytotoxic concentration (IC0),[8]; 48 h exposure,≤ 3.9 µg/mL
same,MIC,[9],2.5 µM
same,MIC,[10],2.5 µM
same,MIC,[11],2.5 µM
